Results reported in US20180042943A1, “METHODS FOR MODULATING BONE DENSITY” (Intercept Pharmaceuticals, Inc., priority 2015, published 2018).
Entries after “also recorded” stand apart in the source; their conditions may differ.

What was measured:
[1] = DEXA scan of the lumbar spine (T-score, Z-score, BMD) in PBC subjects, 12 months OCA or placebo; assay type: in vivo, human; conditions: for Lumbar Spine Scan: Bone Mineral Density, Change From Baseline, Mean / Lumbar Spine Scan: Bone Mineral Density, Change From Baseline, Median / Lumbar Spine Scan: Bone Mineral Density, Result, Mean / Lumbar Spine Scan: Bone Mineral Density, Result, Median / Lumbar Spine Scan: T-Score, Change From Baseline, Mean / Lumbar Spine Scan: T-Score, Change From Baseline, Median / Lumbar Spine Scan: T-Score, Result, Mean / Lumbar Spine Scan: T-Score, Result, Median / Lumbar Spine Scan: Z-Score, Change From Baseline, Mean / Lumbar Spine Scan: Z-Score, Change From Baseline, Median / Lumbar Spine Scan: Z-Score, Result, Mean / Lumbar Spine Scan: Z-Score, Result, Median / Lumbar Spine Scan: Bone Mineral Density, Change From Baseline, LS Mean / Lumbar Spine Scan: Bone Mineral Density, Change From Baseline, OCA - Placebo mean difference / Lumbar Spine Scan: T-Score, Change From Baseline, LS Mean / Lumbar Spine Scan: T-Score, Change From Baseline, OCA - Placebo mean difference / Lumbar Spine Scan: Z-Score, Change From Baseline, LS Mean / Lumbar Spine Scan: Z-Score, Change From Baseline, OCA - Placebo mean difference: orally once daily, DB Month 12, subjects with PBC; for Lumbar Spine Scan: Bone Mineral Density, Change From Baseline, LS Mean / Lumbar Spine Scan: Bone Mineral Density, Change From Baseline, OCA - Placebo mean difference / Lumbar Spine Scan: T-Score, Change From Baseline, LS Mean / Lumbar Spine Scan: T-Score, Change From Baseline, OCA - Placebo mean difference / Lumbar Spine Scan: Z-Score, Change From Baseline, LS Mean / Lumbar Spine Scan: Z-Score, Change From Baseline, OCA - Placebo mean difference: ANCOVA
Experimental: (§1) PBC patients are randomized to three groups: (a) placebo (PCB), (b) 10 mg OCA, or (c) 5 mg (month 0-6) titrating to 10 mg (month 7-12) OCA. Study medication is administered orally, once daily for 12 months. For patients under pretreatment ursodeoxycholic acid (UDCA) treatment, the pre-treatment dose of UDCA is continued throughout their treatment. Bone density is measured by DEXA scans. DEXA scans of the lumbar spine and femoral neck are conducted at Day 0 and Month 12. Additional measurement may be conducted after Month 12 (e.g., annually after Month 12) as necessary and appropriate. The timing of the DEXA scans is not critical, and may be conducted±2 weeks. […] Subjects with PBC±UDCA (if taking UDCA, patients were maintained on a stable dose) with ALP≧1.67×ULN or bilirubin<2×ULN were randomized to placebo (PBO), OCA 5 or 10 mg for 12 months. Subjects on 5 mg were titrated to 10 mg after 6 months (OCA Titration) based on clinical response and tolerability. Dual-emission X-ray absorptiometry (DEXA) scan was used to assess BMD in a subset of subjects prior to and following 12 months of OCA or placebo treatment. Changes from baseline at Month 12 were analyzed using an ANCOVA model with baseline values as a covariate. Osteopenia and osteoporosis were based on WHO thresholds: T score −1.0 to ≦−2.5 […].

[2] = DEXA scan of the femoral neck (T-score, Z-score, BMD) in PBC subjects, 12 months OCA or placebo; assay type: in vivo, human; conditions: for Femoral Neck Scan: Bone Mineral Density, Change From Baseline, Mean / Femoral Neck Scan: Bone Mineral Density, Change From Baseline, Median / Femoral Neck Scan: Bone Mineral Density, Result, Mean / Femoral Neck Scan: Bone Mineral Density, Result, Median / Femoral Neck Scan: T-Score, Change From Baseline, Mean / Femoral Neck Scan: T-Score, Change From Baseline, Median / Femoral Neck Scan: T-Score, Result, Mean / Femoral Neck Scan: T-Score, Result, Median / Femoral Neck Scan: Z-Score, Change From Baseline, Mean / Femoral Neck Scan: Z-Score, Change From Baseline, Median / Femoral Neck Scan: Z-Score, Result, Mean / Femoral Neck Scan: Z-Score, Result, Median / Femoral Neck Scan: Bone Mineral Density, Change From Baseline, LS Mean / Femoral Neck Scan: Bone Mineral Density, Change From Baseline, OCA - Placebo mean difference / Femoral Neck Scan: T-Score, Change From Baseline, LS Mean / Femoral Neck Scan: T-Score, Change From Baseline, OCA - Placebo mean difference / Femoral Neck Scan: Z-Score, Change From Baseline, LS Mean / Femoral Neck Scan: Z-Score, Change From Baseline, OCA - Placebo mean difference: orally once daily, DB Month 12, subjects with PBC; for Femoral Neck Scan: Bone Mineral Density, Change From Baseline, LS Mean / Femoral Neck Scan: Bone Mineral Density, Change From Baseline, OCA - Placebo mean difference / Femoral Neck Scan: T-Score, Change From Baseline, LS Mean / Femoral Neck Scan: T-Score, Change From Baseline, OCA - Placebo mean difference / Femoral Neck Scan: Z-Score, Change From Baseline, LS Mean / Femoral Neck Scan: Z-Score, Change From Baseline, OCA - Placebo mean difference: ANCOVA
Experimental: as §1

[3] = Titration OCA (5 mg, titrated to 10 mg after 6 months)

## CC[C@H]1[C@@H](O)[C@@H]2[C@H](CC[C@]3(C)[C@@H]([C@H](C)CCC(=O)O)CC[C@@H]23)[C@@]2(C)CC[C@@H](O)C[C@@H]12 [OCA, 3α,7α-dihydroxy-6α-ethyl-5β-cholan-24-oic acid]
[1]; 10 mg OCA
  Lumbar Spine Scan: Bone Mineral Density, Change From Baseline, Mean: −0.012 g/cm^2
  Lumbar Spine Scan: Bone Mineral Density, Change From Baseline, Median: −0.013 g/cm^2
  Lumbar Spine Scan: Bone Mineral Density, Result, Mean: 1.003 g/cm^2
  Lumbar Spine Scan: Bone Mineral Density, Result, Median: 0.976 g/cm^2
  Lumbar Spine Scan: T-Score, Change From Baseline, Mean: −0.17
  Lumbar Spine Scan: T-Score, Change From Baseline, Median: −0.10
  Lumbar Spine Scan: T-Score, Result, Mean: −1.02
  Lumbar Spine Scan: T-Score, Result, Median: −1.20
  Lumbar Spine Scan: Z-Score, Change From Baseline, Mean: −0.03
  Lumbar Spine Scan: Z-Score, Change From Baseline, Median: 0.00
  Lumbar Spine Scan: Z-Score, Result, Mean: 0.01
  Lumbar Spine Scan: Z-Score, Result, Median: 0.00
  Lumbar Spine Scan: Bone Mineral Density, Change From Baseline, LS Mean: −0.01 g/cm^2
  Lumbar Spine Scan: Bone Mineral Density, Change From Baseline, OCA - Placebo mean difference: 0.00 g/cm^2
  Lumbar Spine Scan: T-Score, Change From Baseline, LS Mean: −0.09
  Lumbar Spine Scan: T-Score, Change From Baseline, OCA - Placebo mean difference: 0.16
  Lumbar Spine Scan: Z-Score, Change From Baseline, LS Mean: −0.03
  Lumbar Spine Scan: Z-Score, Change From Baseline, OCA - Placebo mean difference: −0.05
[1]; [3]
  Lumbar Spine Scan: Bone Mineral Density, Change From Baseline, Mean: −0.014 g/cm^2
  Lumbar Spine Scan: Bone Mineral Density, Change From Baseline, Median: −0.007 g/cm^2
  Lumbar Spine Scan: Bone Mineral Density, Result, Mean: 1.013 g/cm^2
  Lumbar Spine Scan: Bone Mineral Density, Result, Median: 0.994 g/cm^2
  Lumbar Spine Scan: T-Score, Change From Baseline, Mean: −0.06
  Lumbar Spine Scan: T-Score, Change From Baseline, Median: 0.00
  Lumbar Spine Scan: T-Score, Result, Mean: −1.10
  Lumbar Spine Scan: T-Score, Result, Median: −1.35
  Lumbar Spine Scan: Z-Score, Change From Baseline, Mean: 0.00
  Lumbar Spine Scan: Z-Score, Change From Baseline, Median: 0.00
  Lumbar Spine Scan: Z-Score, Result, Mean: 0.02
  Lumbar Spine Scan: Z-Score, Result, Median: −0.20
  Lumbar Spine Scan: Bone Mineral Density, Change From Baseline, LS Mean: −0.01 g/cm^2
  Lumbar Spine Scan: Bone Mineral Density, Change From Baseline, OCA - Placebo mean difference: −0.01 g/cm^2
  Lumbar Spine Scan: T-Score, Change From Baseline, LS Mean: −0.01
  Lumbar Spine Scan: T-Score, Change From Baseline, OCA - Placebo mean difference: 0.25
  Lumbar Spine Scan: Z-Score, Change From Baseline, LS Mean: 0.00
  Lumbar Spine Scan: Z-Score, Change From Baseline, OCA - Placebo mean difference: −0.01
[1]; both OCA groups, Baseline to Month 12, subjects with PBC
  Lumbar bone mineral density change, OCA groups versus placebo: No significant difference; also recorded: not significant
[2]; 10 mg OCA
  Femoral Neck Scan: Bone Mineral Density, Change From Baseline, Mean: −0.034 g/cm^2
  Femoral Neck Scan: Bone Mineral Density, Change From Baseline, Median: −0.018 g/cm^2
  Femoral Neck Scan: Bone Mineral Density, Result, Mean: 0.813 g/cm^2
  Femoral Neck Scan: Bone Mineral Density, Result, Median: 0.779 g/cm^2
  Femoral Neck Scan: T-Score, Change From Baseline, Mean: −0.11
  Femoral Neck Scan: T-Score, Change From Baseline, Median: −0.10
  Femoral Neck Scan: T-Score, Result, Mean: −1.06
  Femoral Neck Scan: T-Score, Result, Median: −1.05
  Femoral Neck Scan: Z-Score, Change From Baseline, Mean: −0.06
  Femoral Neck Scan: Z-Score, Change From Baseline, Median: 0.00
  Femoral Neck Scan: Z-Score, Result, Mean: −0.01
  Femoral Neck Scan: Z-Score, Result, Median: −0.10
  Femoral Neck Scan: Bone Mineral Density, Change From Baseline, LS Mean: −0.04 g/cm^2
  Femoral Neck Scan: Bone Mineral Density, Change From Baseline, OCA - Placebo mean difference: −0.02 g/cm^2
  Femoral Neck Scan: T-Score, Change From Baseline, LS Mean: −0.07
  Femoral Neck Scan: T-Score, Change From Baseline, OCA - Placebo mean difference: 0.26
  Femoral Neck Scan: Z-Score, Change From Baseline, LS Mean: −0.07
  Femoral Neck Scan: Z-Score, Change From Baseline, OCA - Placebo mean difference: 0.05
[2]; [3]
  Femoral Neck Scan: Bone Mineral Density, Change From Baseline, Mean: −0.003 g/cm^2
  Femoral Neck Scan: Bone Mineral Density, Change From Baseline, Median: −0.004 g/cm^2
  Femoral Neck Scan: Bone Mineral Density, Result, Mean: 0.809 g/cm^2
  Femoral Neck Scan: Bone Mineral Density, Result, Median: 0.822 g/cm^2
  Femoral Neck Scan: T-Score, Change From Baseline, Mean: −0.03
  Femoral Neck Scan: T-Score, Change From Baseline, Median: −0.05
  Femoral Neck Scan: T-Score, Result, Mean: −1.28
  Femoral Neck Scan: T-Score, Result, Median: −1.45
  Femoral Neck Scan: Z-Score, Change From Baseline, Mean: 0.01
  Femoral Neck Scan: Z-Score, Change From Baseline, Median: 0.00
  Femoral Neck Scan: Z-Score, Result, Mean: −0.23
  Femoral Neck Scan: Z-Score, Result, Median: −0.45
  Femoral Neck Scan: Bone Mineral Density, Change From Baseline, LS Mean: −0.01 g/cm^2
  Femoral Neck Scan: Bone Mineral Density, Change From Baseline, OCA - Placebo mean difference: 0.01 g/cm^2
  Femoral Neck Scan: T-Score, Change From Baseline, LS Mean: −0.06
  Femoral Neck Scan: T-Score, Change From Baseline, OCA - Placebo mean difference: 0.27
  Femoral Neck Scan: Z-Score, Change From Baseline, LS Mean: −0.01
  Femoral Neck Scan: Z-Score, Change From Baseline, OCA - Placebo mean difference: 0.10
[2]; both OCA groups, Baseline to Month 12, subjects with PBC, p<0.05
  decrease in femoral bone mineral density T-score versus placebo: smaller decrease
